This is an account of results in patent publication US9896441B2 (Lycera Corporation, priority 2014, dated 2018).

pEC50: −log10 of the molar value. Where only a bound is given, the exact number is not on record here.

The target of assay [1] is T1, Gal4-RORγ-LBD (Homo sapiens, UniProt P51449).
T1 construct: expressed in transfected cells
T1 sequence (P51449 269-508 limits assumed): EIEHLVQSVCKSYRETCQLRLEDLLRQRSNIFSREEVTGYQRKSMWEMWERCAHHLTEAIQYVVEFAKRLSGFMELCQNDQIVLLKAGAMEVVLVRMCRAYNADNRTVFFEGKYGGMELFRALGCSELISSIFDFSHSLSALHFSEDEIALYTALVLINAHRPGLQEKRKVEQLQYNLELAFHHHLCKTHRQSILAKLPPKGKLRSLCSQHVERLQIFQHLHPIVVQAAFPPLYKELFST
The assay is described as follows: Gal4-RORγ Luciferase Reporter Assay in HEK-293T Cells. The assay is classed as cell-based. Conditions: HEK-293 cells; for Gal4-RORγ Assay Max Response: maximum response. The essentials: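 Max Response was taken as the upper plateau of a 4-parameter logistic fit of luciferase signal, normalized to 100 for wells without ursolic acid or compound. Transiently Gal4-RORγ-LBD/Gal4-luc transfected HEK-293 cells carrying […] ursolic acid were incubated with test compounds (0.2% DMSO) overnight at 37 °C and read with One-Glo.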
In general terms: A reporter such as luciferase makes a cellular process visible.

The target of assay [2] is T2, RORγ-LBD (Homo sapiens, UniProt P51449).
T2 construct: made in house; host or cells: SF9 cells (baculovirus); used as diluted lysate
T2 sequence (P51449 269-508 limits assumed): T1 sequence (P51449 269-508 limits assumed)
The assay is described as follows: RORγ-Ligand Binding Domain (LBD) TR-FRET Assay.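 For TR-FRET Assay Max Response: 665/615 nm signal ratio set to 100 without ursolic acid or test compound.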 Format: biochemical. The conditions noted are these: for TR-FRET Assay Max Response: maximum response. An outline of the steps:
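Compounds, diluted in DMSO and then in assay buffer (1% DMSO final), were combined with His-tagged RORγ-LBD lysate at roughly 3 nM final and a 200 nM biotinylated SRC1 LXXLL peptide. Ursolic acid was included at 2 μM final. Coactivator recruitment was detected by TR-FRET.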
For orientation: In TR-FRET formats the signal depends on donor and acceptor labels being close together.

[3] abbreviates: luciferase reporter, in presence of ursolic acid.
Where [4] appears, read: ursolic acid present, luciferase readout.
Where [5] appears, read: with 2 μM ursolic acid (RORγ antagonist), highest test concentration 10 μM.

For orientation: pEC50 means −log10 of the EC50, conventionally taken in molar units.

On to `COc1cc(S(=O)(=O)C2CC(CCC(=O)O)Oc3ccc(/C=C(\C)c4c(F)cccc4Cl)cc32)ccc1F` (stereo not drawn) [Example 186G, (E)-3-(6-(2-(2-chloro-6-fluorophenyl)prop-1-en-1-yl)-4-((4-fluoro-3-methoxyphenyl)-sulfonyl)chroman-2-yl)propanoic acid], for which, in assay [1] (setting [3]), the negative logarithm of the EC50 (pEC50) is 5.30 to 6.30 and the “Gal4-RORγ Assay Max Response” value is on record as “** (a value in the range of greater than 90 to 150)”. For the same compound, in assay [2] (RORγ-LBD TR-FRET assay), the pEC50 is greater than 6.30 and the “TR-FRET Assay Max Response” value is listed as “** (a value in the range of greater than 90 to 150)”.
As for `COC(=O)CCC1CC(S(=O)(=O)c2cccc(C(F)(F)F)c2)c2cc(/C=C(\C)c3c(F)cccc3Cl)ccc2O1` (stereo not drawn) [Example 186H, methyl (E)-3-(6-(2-(2-chloro-6-fluorophenyl)prop-1-en-1-yl)-4-((3-(trifluoromethyl)phenyl)-sulfonyl)chroman-2-yl)propanoate], in assay [1] (setting [3]), the pEC50 was greater than 6.30 and the “Gal4-RORγ Assay Max Response” value is “** (a value in the range of greater than 90 to 150)”. Moreover, in assay [2] (RORγ-LBD TR-FRET assay), the negative logarithm of the EC50 (pEC50) was greater than 6.30 and the “TR-FRET Assay Max Response” value is “*** (a value in the range of greater than 150 to 200)”.
For the compound `C/C(=C\c1ccc2c(c1)C(S(=O)(=O)c1cccc(C(F)(F)F)c1)CC(CCC(=O)O)O2)c1c(F)cccc1Cl` (stereo not drawn) [Example 186I, (E)-3-(6-(2-(2-chloro-6-fluorophenyl)prop-1-en-1-yl)-4-((3-(trifluoromethyl)phenyl)-sulfonyl)chroman-2-yl)propanoic acid], in assay [1] (setting [3]), the pEC50 is greater than 6.30 and the “Gal4-RORγ Assay Max Response” value was “** (a value in the range of greater than 90 to 150)”. Moreover, in assay [2] (RORγ-LBD TR-FRET assay), the pEC50 is greater than 6.30 and the “TR-FRET Assay Max Response” value is reported as “** (a value in the range of greater than 90 to 150)”.
For `CCOC(=O)C(C)(C)CC1CC(S(=O)(=O)c2ccc(F)c(OC)c2)c2cc(/C=C(\C)c3c(F)cccc3Cl)ccc2O1` (stereo not drawn) [Example 186J, ethyl (E)-3-(6-(2-(2-chloro-6-fluorophenyl)prop-1-en-1-yl)-4-44-fluoro-3-methoxyphenyl)-sulfonyl)chroman-2-yl)-2,2-dimethylpropanoate], in assay [1] (setting [3]), the negative-log EC50 (pEC50) is 5.30 to 6.30 and the “Gal4-RORγ Assay Max Response” value is listed as “** (a value in the range of greater than 90 to 150)”. For the same compound, in assay [2] (RORγ-LBD TR-FRET assay), the negative logarithm of the EC50 (pEC50) was greater than 6.30 and the “TR-FRET Assay Max Response” value is reported as “** (a value in the range of greater than 90 to 150)”.
As for `CCOC(=O)C(C)(C)C[C@H]1C[C@H](S(=O)(=O)c2cccc(C(F)(F)F)c2)c2cc(/C=C(\C)c3c(F)cccc3Cl)ccc2O1` [Example 186M, ethyl 3-((2S,45)-6-((E)-2-(2-chloro-6-fluorophenyl)prop-1-en-1-yl)-4-((3-(trifluoromethyl)-phenyl)sulfonyl)chroman-2-yl)-2,2-dimethylpropanoate], in assay [1] (setting [3]), the pEC50 was greater than 6.30 and the “Gal4-RORγ Assay Max Response” value is on record as “* (a value in the range of 30 to 90)”. In assay [2] (RORγ-LBD TR-FRET assay), the negative-log EC50 (pEC50) was greater than 6.30 and the “TR-FRET Assay Max Response” value is listed as “*** (a value in the range of greater than 150 to 200)”.
As to `C/C(=C\c1ccc2c(c1)C(S(=O)(=O)c1cccc(C(F)(F)F)c1)CC(CC(C)(C)C(=O)O)O2)c1c(F)cccc1Cl` (stereo not drawn) [Example 186N, (E)-3-(6-(2-(2-chloro-6-fluorophenyl)prop-1-en-1-yl)-4-((3-(trifluoromethyl)phenyl)-sulfonyl)chroman-2-yl)-2,2-dimethylpropanoic acid], in assay [1] (setting [3]), the pEC50 is greater than 6.30 and the “Gal4-RORγ Assay Max Response” value is reported as “** (a value in the range of greater than 90 to 150)”. In assay [2] (RORγ-LBD TR-FRET assay), the pEC50 is greater than 6.30 and the “TR-FRET Assay Max Response” value is on record as “*** (a value in the range of greater than 150 to 200)”.
Regarding `C/C(=C\c1ccc2c(c1)N(S(=O)(=O)c1cccc(C(F)(F)F)c1)CCS2)c1c(F)cccc1Cl` [Example 187, (E)-6-(2-(2-Chloro-6-fluorophenyl)prop-1-en-1-yl)-4-((3-(trifluoromethyl)phenyl)sulfonyl)-3,4-dihydro-2H-benzo[b][1,4]thiazine], in assay [1] (setting [3]), the negative logarithm of the EC50 (pEC50) was greater than 6.30 and the “Gal4-RORγ Assay Max Response” value is “** (a value in the range of greater than 90 to 150)”. Moreover, in assay [2] (RORγ-LBD TR-FRET assay), the pEC50 was greater than 6.30 and the “TR-FRET Assay Max Response” value was “**** (a value greater than 200)”.
`C/C(=C\c1ccc2c(c1)N(S(=O)(=O)c1cccc(C(F)(F)F)c1)CCC2=O)c1c(F)cccc1Cl` [Example 188, (E)-7-(2-(2-chloro-6-fluorophenyl)prop-1-en-1-yl)-1-((3-(trifluoromethyl)phenyl)sulfonyl)-2,3-dihydroquinolin-4(1H)-one]: in assay [1] (setting [3]), the pEC50 was 5.30 to 6.30 and the “Gal4-RORγ Assay Max Response” value is listed as “** (a value in the range of greater than 90 to 150)”. Besides, in assay [2] (RORγ-LBD TR-FRET assay), the pEC50 is greater than 6.30 and the “TR-FRET Assay Max Response” value is listed as “**** (a value greater than 200)”.
The matching figures for `C/C(=C\c1ccc2c(c1)N(S(=O)(=O)c1cccc(C(F)(F)F)c1)CCC2(F)F)c1c(F)cccc1Cl` [Example 189, (E)-7-(2-(2-Chloro-6-fluorophenyl)prop-1-en-1-yl)-4,4-difluoro-1-((3-(trifluoromethyl)phenyl)sulfonyl)-1,2,3,4-tetrahydroquinoline]: 5.30 to 6.30, “** (a value in the range of greater than 90 to 150)”, greater than 6.30 and “*** (a value in the range of greater than 150 to 200)”.
For `COc1cc(S(=O)(=O)N2C[C@H](CCC(=O)O)Oc3ccc(/C=C(\C)C4CCCC4)cc32)ccc1F` [Example 191A, (S,E)-3-(6-(2-cyclopentylprop-1-en-1-yl)-4-((4-fluoro-3-methoxyphenyl)sulfonyl)-3,4-dihydro-2H-benzo[b][1,4]-oxazin-2-yl)propanoic acid] the same measures were 5.30 to 6.30, “** (a value in the range of greater than 90 to 150)”, greater than 6.30 and “** (a value in the range of greater than 90 to 150)”.
For the compound `CC/C(C)=C\c1ccc2c(c1)N(S(=O)(=O)c1cccc(C(F)(F)F)c1)C[C@H](CCC(=O)O)O2` [Example 191B, (S,Z)-3-(6-(2-methylbut-1-en-1-yl)-4-((3-(trifluoromethyl)-phenyl)sulfonyl)-3,4-dihydro-2H-benzo[b][1,4]oxazin-2-yl)propanoic acid], in assay [1] (setting [3]), the pEC50 was 5.30 to 6.30 and the “Gal4-RORγ Assay Max Response” value was “*** (a value in the range of greater than 150 to 200)”. Further, in assay [2] (RORγ-LBD TR-FRET assay), the pEC50 was greater than 6.30 and the “TR-FRET Assay Max Response” value is reported as “*** (a value in the range of greater than 150 to 200)”.
As to `CC/C(C)=C\c1ccc2c(c1)N(S(=O)(=O)c1cccc(C(F)(F)F)c1)C[C@H](CCC(=O)OC)O2` [Example 191C, methyl (S,Z)-3-(6-(2-methylbut-1-en-1-yl)-4-((3-(trifluoromethyl)phenyl)-sulfonyl)-3,4-dihydro-2H-benzo[b][1,4]oxazin-2-yl)propanoate], in assay [1] (setting [3]), the pEC50 is 5.30 to 6.30 and the “Gal4-RORγ Assay Max Response” value was “** (a value in the range of greater than 90 to 150)”. In assay [2] (RORγ-LBD TR-FRET assay), the pEC50 is greater than 6.30 and the “TR-FRET Assay Max Response” value is reported as “**** (a value greater than 200)”.
`CC/C(C)=C\c1ccc2c(c1)N(S(=O)(=O)c1cc(C(F)(F)F)cnc1OCCO)C[C@H](CCC(=O)O)O2` [Example 191D, (S,Z)-3-(4-((2-(2-hydroxyethoxy)-5-(trifluoromethyl)pyridin-3-yl)sulfonyl)-6-(2-methylbut-1-en-1-yl)-3,4-dihydro-2H-benzo[b][1,4]oxazin-2-yl)propanoic acid]: in assay [1] (setting [3]), the pEC50 was less than 5.00. For the same compound, in assay [2] (RORγ-LBD TR-FRET assay), the pEC50 was greater than 6.30 and the “TR-FRET Assay Max Response” value is listed as “** (a value in the range of greater than 90 to 150)”.
Regarding `CC/C(=C\c1ccc2c(c1)N(S(=O)(=O)c1cc(C(F)(F)F)cnc1OCCO)C[C@H](CCC(=O)O)O2)C(C)C` [Example 191E, (S,E)-3-(6-(2-ethyl-3-methylbut-1-en-1-yl)-4-((2-(2-hydroxy-ethoxy)-5-(trifluoromethyl)-pyridin-3-yl)sulfonyl)-3,4-dihydro-2H-benzo[b][1,4]oxazin-2-yl)propanoic acid], the negative-log EC50 (pEC50) in assay [1] (setting [4]) was 5.30 to 6.30; in assay [2] (setting [5]), greater than 6.30.
The matching figures for `CC/C(=C\c1ccc2c(c1)N(S(=O)(=O)c1cc(C(F)(F)F)cnc1OCCO)C[C@H](CCC(=O)OC)O2)C(C)C` [Example 191F, methyl (S,E)-3-(6-(2-ethyl-3-methylbut-1-en-1-yl)-4-((2-(2-hydroxyethoxy)-5-(trifluoro-methyl)pyridin-3-yl)sulfonyl)-3,4-dihydro-2H-benzo[b][1,4]oxazin-2-yl)propanoate]: 5.30 to 6.30 and greater than 6.30.
The matching figures for `CC/C(=C\c1ccc2c(c1)N(S(=O)(=O)c1cccc(C(F)(F)F)c1)C[C@H](CCC(=O)O)O2)C(C)C` [Example 191G, (S,E)-3-(6-(2-ethyl-3-methylbut-1-en-1-yl)-4-((3-(trifluoromethyl)-phenyl)sulfonyl)-3,4-dihydro-2H-benzo[b][1,4]oxazin-2-yl)propanoic acid]: greater than 6.30 and greater than 6.30.
